Data on 18 molecules can be found in patent publication US7563781B2, “Triazolopyrimidine derivatives” (Janssen Pharmaceutica NV, priority 2006, dated 2009).

Each structure is given as a SMILES string.

In assay [1] the target is T1, Focal Adhesion Kinase (full-length Flag-tagged human FAK) (Homo sapiens, UniProt Q05397).
T1 construct: a purified recombinant full-length Flag-tagged human FAK protein; Flag; made in house; host or cells: baculovirus infected insect cells
Briefly: in vitro FAK ELISA kinase assay. Format: biochemical. The conditions noted are these: compound 10 uM, ATP 2 uM; for inhibition at 10 µM: read-out: FAK % Inhib ave: 10 uM. The method, then:
Compound effects on the tyrosine kinase activity of Focal Adhesion Kinase were assessed with an in vitro FAK ELISA kinase assay. This assay measures the incorporation of phosphate from ATP into a FAK substrate protein using an antibody specific for phospho-tyrosine.
500 ng of FAKsubstrate, a purified recombinant fusion protein of GST and a 73 amino acid region surrounding the Tyr397 human FAK autophosphorylation site, was coated in a high-protein binding polystyrene 96 well plate overnight in a buffer containing 50 mM Hepes, pH 7.5, 150 mM NaCl, 0.1 mM Na-oVO4, 0.1 mM NaF and 1 protease inhibitor tablet/10 mL (Complete Mini-EDTA-free, Roche). The next day this solution was removed and the wells were incubated with 0.2% BSA in 50 mM Hepes, pH 7.5, 150 mM NaCl, 0.2 mM PMSF for 1 hour at 30° C. to block unoccupied protein binding sites. The wells were then washed with 50 mM Hepes, pH 7.5, 150 mM NaCl, 0.1% Tween 20. The kinase reaction was performed with 25 ng/well of FAK enzyme (a purified recombinant full-length Flag-tagged human FAK protein made in baculovirus infected insect cells) in 0.1 mL of a buffer containing 25 mM Hepes, pH 7.5, 5 mM MgCl2, 0.5 mM MnCl2, 10 uM NaoVO4, 0.2 mM PMSF. Compounds were added from 30% DMSO stock solutions for a screening concentration of 10 uM or IC50 determinations from 50 uM in half-log dilutions. The reaction is initiated with addition of ATP to a final concentration of 2 uM and incubated at 30° C. for 1 hour. Following the kinase reaction step, the wells were washed and incubated with 50 ng of Horseradish Peroxidase conjugated anti-phosphotyrosine antibody (PT-66 HRP, Sigma) in 0.1 mL wash buffer for 1 hour at 30° C. Wells were then washed and 0.1 mL HRP substrate, Tetra-methyl Benzidine (Sigma) was added and the color reaction allowed to proceed for 2-3 minutes followed by the addition of 0.1 mL of 1N H2SO4 to stop the HRP reaction. Percent inhibition of FAK kinase activity was calculated by comparing compound containing wells to wells treated with diluent only. Background was subtracted from all wells and was defined as the activity of FAK using 500 ng/well of BSA as a substrate. IC50 values were obtained using Prism data analysis software.
A general note: An ELISA detects its analyte on a solid surface through an enzyme-linked reagent.

Assay [2] deals with T2, CAK complex (human Cdk7, human Cyclin H, MAT-1) (Homo sapiens, UniProt P50613).
T2 construct: made in house; host or cells: SF-900 insect cells co-infected with Flag-Cdk7 and Bab-Cyclin H baculoviruses
T2 sequence (P50613 with tags, fused parts or gaps): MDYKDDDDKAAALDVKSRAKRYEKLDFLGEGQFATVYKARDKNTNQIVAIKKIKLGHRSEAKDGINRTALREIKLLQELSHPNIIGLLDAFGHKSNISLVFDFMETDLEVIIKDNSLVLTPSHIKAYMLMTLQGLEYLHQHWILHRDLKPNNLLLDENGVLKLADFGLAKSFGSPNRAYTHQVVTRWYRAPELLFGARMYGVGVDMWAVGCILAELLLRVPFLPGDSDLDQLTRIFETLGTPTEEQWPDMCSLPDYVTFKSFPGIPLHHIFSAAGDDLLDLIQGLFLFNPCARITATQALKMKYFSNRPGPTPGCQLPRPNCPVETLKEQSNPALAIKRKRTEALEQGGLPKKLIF
T2 sequence (as listed by the source partner): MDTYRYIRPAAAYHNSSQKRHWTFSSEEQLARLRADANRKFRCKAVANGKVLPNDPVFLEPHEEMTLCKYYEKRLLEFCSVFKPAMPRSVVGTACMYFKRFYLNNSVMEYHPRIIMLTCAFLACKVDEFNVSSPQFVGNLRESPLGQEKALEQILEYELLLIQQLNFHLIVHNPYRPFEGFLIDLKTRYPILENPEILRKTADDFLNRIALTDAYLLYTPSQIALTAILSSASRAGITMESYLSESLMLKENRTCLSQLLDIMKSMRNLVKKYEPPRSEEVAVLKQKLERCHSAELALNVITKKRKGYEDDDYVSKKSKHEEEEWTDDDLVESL
Nature of the assay: in vitro time-resolved-fluorescence assay for the CAK kinase activity. Type of assay: biochemical. The conditions noted are these: compound 20 uM; for inhibition at 20 µM: read-out: CAK % inhib. An excerpt:
Cyclin Dependent Kinase Activating Kinase (CAK) is a complex of proteins that phosphorylates a well-conserved threonine (Thr) residue in all mammalian cyclin dependent kinases (cdks). The CAK complex can also phosphorylate several components of the transcriptional machinery, such as the C-terminal domain (CTD) of RNA polymerase II in the TFIIH transcription complex. The CAK complex localizes to the nucleus, and is composed of three proteins: Cdk7, Cyclin H, and MAT-1. The exemplified method teaches the cloning and expression CAK subunits, particularly a human Cdk7 and a human Cyclin H. The method of the present invention exemplified herein is equally applicable to the cloning and expression of any CAK subunit, such as variants, structural or functional polymorphisms of the human Cdk7 or the human Cyclin H, or their orthologs in other animals such as rat, mouse, pig, dog and monkey.
The CAK complex was purified from co-infected SF-900 insect cells at 48 hours post infection by batch immunoaffinity purification. The infected cells were pelleted by centrifugation and lysed in 1/10 of the culture volume in a solution containing 50 mM Hepes pH 7.5, 10 mM MgCl2, 1 mM DTT, 10 mM Beta-Glycerol phosphate, 20 uM Na-oVO4, 0.2 mM PMSF and 1 μg/mL each of leupeptin, aprotinin, and pepstatin on ice. Cells were mechanically lysed by trituration through a 22-gauge needle followed by sonication or alternately by nitrogen cavitation. The lysed cells were centrifuged at 50,000×G for 1 hour at 4° C. to remove debris and the supernatant was applied to 1/10 volume of prewashed Flag-M2 immunoaffinity resin (Sigma). The CAK complex, by nature of the Flag tagged Cdk7 protein, was allowed to bind to the Flag antibody of the resin overnight at 4° C. with gentle rocking. The resin was washed 4 times with 5 resin volumes of lysis buffer and the bound proteins were eluted by competition with 0.5 mg/mL Flag peptide ([…], American Peptide Co, Inc., SEQ ID NO: 16) in a total of 2 resin volumes. To remove the Flag peptide, the eluted material was applied to PD-10 gel filtration columns (Pharmacia) under conditions recommended by the manufacturer.
Measurement of CAK kinase activity was accomplished using an antibody methodology in which a Europium labeled antibody binds preferentially to serine phosphorylated GST-CTD substrate. The long-lived europium label fluorescence allows a greater signal-to-noise ratio due to the delay in reading the emission wavelength, thereby eliminating signals from immediate fluorescence and fluorescent pharmaceutical screening compounds.
The time-resolved-fluorescence assay for the CAK kinase activity is performed as follows. In a well of a black glutathione coated 96 well micro titer plate (Pierce Chemical, No. 15360), the following reagents were added: 1) 25 ul substrate solution containing 500 ng purified GST-CTD in a buffer having 50 mM Hepes pH 7.5, 10 mM MgCl2, 1 mM DTT, 0.2 mM PMSF, 40 uM Na-oVO4, and 22 uM ATP (as a background control, the buffer, including ATP but not substrate was added); 2) 2.5 ul of screening compounds in a diluent containing 30% DMSO/25 mM Hepes pH7.5 (As a control, the diluent only was added. Typically the final concentration of compound is 1 uM); and 3) 250 ng CAK enzyme complex in enzyme buffer containing 25 ul of 50 mM Hepes pH 7.5, 10 mM MgCl2, 1 mM DTT, 0.2 mM PMSF, and 40 uM Na-oVO4. The micro titer plate was shaken for 2 minutes on a titer plate shaker and allowed to incubate at 30° C. for 20 minutes.
Subsequently, Kinase Stop Solution (75 mM EDTA, 0.2 mM PMSF, 1 mM DTT, 120 uM Na oVO4 in PBS) was added (50 ul/well). The plate was shaken for 2 minutes and incubated overnight at room temperature to allow substrate binding to the wells. The plate contents were flicked out, and the wells of the plate were washed 4 times with 350 ul of wash buffer (Delphia wash buffer, Perkin-Elmer, Inc.). The plate was tapped dry. […]

T1 sequence (Q05397 whole entry): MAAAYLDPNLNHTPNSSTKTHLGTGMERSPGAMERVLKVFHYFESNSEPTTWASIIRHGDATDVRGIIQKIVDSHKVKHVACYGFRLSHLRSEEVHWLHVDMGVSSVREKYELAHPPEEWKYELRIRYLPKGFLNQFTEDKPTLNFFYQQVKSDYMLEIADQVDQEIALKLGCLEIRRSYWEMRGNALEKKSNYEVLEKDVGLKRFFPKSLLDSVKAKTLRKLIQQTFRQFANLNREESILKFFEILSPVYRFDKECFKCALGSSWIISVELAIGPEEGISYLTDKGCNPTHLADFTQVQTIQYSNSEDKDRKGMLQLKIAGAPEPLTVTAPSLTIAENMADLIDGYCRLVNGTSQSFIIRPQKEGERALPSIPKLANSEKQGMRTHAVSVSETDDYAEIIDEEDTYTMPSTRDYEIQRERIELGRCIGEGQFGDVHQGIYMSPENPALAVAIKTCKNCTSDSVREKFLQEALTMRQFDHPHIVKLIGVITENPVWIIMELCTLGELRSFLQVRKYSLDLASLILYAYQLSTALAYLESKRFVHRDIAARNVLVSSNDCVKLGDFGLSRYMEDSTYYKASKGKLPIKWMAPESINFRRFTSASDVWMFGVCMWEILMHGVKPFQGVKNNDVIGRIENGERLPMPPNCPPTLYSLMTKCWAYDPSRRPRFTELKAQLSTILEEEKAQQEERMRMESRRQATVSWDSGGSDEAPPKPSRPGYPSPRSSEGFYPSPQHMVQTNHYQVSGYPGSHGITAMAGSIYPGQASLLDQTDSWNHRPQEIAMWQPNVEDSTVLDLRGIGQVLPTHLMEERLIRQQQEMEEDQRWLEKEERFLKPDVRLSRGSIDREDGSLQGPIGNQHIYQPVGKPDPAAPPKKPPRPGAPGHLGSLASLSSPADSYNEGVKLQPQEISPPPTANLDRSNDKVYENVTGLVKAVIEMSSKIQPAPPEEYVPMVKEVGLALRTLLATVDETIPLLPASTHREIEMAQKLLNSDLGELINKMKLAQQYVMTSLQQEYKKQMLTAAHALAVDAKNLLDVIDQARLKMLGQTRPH

With `CCN(CC)CCOC(=O)c1ccc(Nc2ncc3nnn(-c4ccc5c(c4)CCC5)c3n2)cc1` [Compound 33, 4-(3-Indan-5-yl-3H-[1,2,3]triazolo[4,5-d]pyrimidin-5-ylamino)-benzoic acid 2-diethylamino-ethyl ester], the “FAK % Inhib ave: 10 uM” value in assay [1] was found to be 28.57%. Also, the “CAK % inhib; 20 uM” value in assay [2] stood at 42.00%.

Take `CCCCNS(=O)(=O)c1cccc(-n2nnc3cnc(Nc4cc(OC)c(OC)c(OC)c4)nc32)c1` [Compound 34, N-Butyl-3-[5-(3,4,5-trimethoxy-phenylamino)-[1,2,3]triazolo[4,5-d]pyrimidin-3-yl]-benzene-sulfonamide]: in assay [1], the inhibition at 10 µM was 25%. Further, the inhibition at 20 µM in assay [2] was 19%.

With `Cc1nccc(-c2cccc(-n3nnc4cnc(Nc5ccc(-c6csnn6)cc5)nc43)c2)n1` [Compound 36, {3-[3-(2-Methyl-pyrimidin-4-yl)-phenyl]-3H-[1,2,3]triazolo[4,5-d]pyrimidin-5-yl}-(4-[1,2,3]thiadiazol-4-yl-phenyl)-amine], the inhibition at 10 µM in assay [1] is -1.2%. Besides, the inhibition at 20 µM in assay [2] is 2.3%.

Regarding `CNC(=O)c1cccc(Nc2ncc3nnn(-c4cccc(-c5ccnc(C)n5)c4)c3n2)c1` [Compound 37, N-Methyl-3-{3-[3-(2-methyl-pyrimidin-4-yl)-phenyl]-3H-[1,2,3]triazolo[4,5-d]pyrimidin-5-ylamino}-benzamide], in assay [1], the inhibition at 10 µM was -7%. Also, the inhibition at 20 µM in assay [2] was -1.1%.

As to `c1ccc(-c2cccc(Nc3ncc4nnn(-c5ccc(-c6csnn6)cc5)c4n3)c2)cc1` [Compound 38, Biphenyl-3-yl-[3-(4-[1,2,3]thiadiazol-4-yl-phenyl)-3H-[1,2,3]triazolo[4,5-d]pyrimidin-5-yl]-amine], the inhibition at 10 µM in assay [1] was 3.4%. The inhibition at 20 µM in assay [2] came to 27.2%.

Consider `CNC(=O)c1cccc(Nc2ncc3nnn(-c4ccc(-c5csnn5)cc4)c3n2)c1` [Compound 39, N-Methyl-3-[3-(4-[1,2,3]thiadiazol-4-yl-phenyl)-3H-[1,2,3]triazolo[4,5-d]pyrimidin-5-ylamino]-benzamide], for which, in assay [1], the inhibition at 10 µM was 3.2%. Moreover, the inhibition at 20 µM in assay [2] is -1.5%.

For `CNC(=O)c1cccc(-n2nnc3cnc(Nc4cccc(-c5ccnc(C)n5)c4)nc32)c1` [Compound 40, N-Methyl-3-{5-[3-(2-methyl-pyrimidin-4-yl)-phenylamino]-[1,2,3]triazolo[4,5-d]pyrimidin-3-yl}-benzamide], the inhibition at 10 µM in assay [1] amounted to 6.99%. Also, the inhibition at 20 µM in assay [2] was -2.21%.

On to `CNC(=O)c1cccc(-n2nnc3cnc(Nc4cccc(-c5ccccc5)c4)nc32)c1` [Compound 41, 3-[5-(Biphenyl-3-ylamino)-[1,2,3]triazolo[4,5-d]pyrimidin-3-yl]-N-methyl-benzamide], for which the inhibition at 10 µM in assay [1] is -3.2%. Also, the inhibition at 20 µM in assay [2] amounted to 5.6%.

As for `COc1cc(Nc2ncc3nnn(-c4cc(OC)c(OC)c(OC)c4)c3n2)cc(OC)c1OC` [Compound 42, (3,4,5-Trimethoxy-phenyl)-[3-(3,4,5-trimethoxy-phenyl)-3H-[1,2,3]triazolo[4,5-d]pyrimidin-5-yl]-amine], the inhibition at 10 µM in assay [1] is 35.6%. For the same molecule, the inhibition at 20 µM in assay [2] was found to be 3.4%.

On to `COc1cc(-n2nnc3cnc(Nc4ccc5[nH]ncc5c4)nc32)cc(OC)c1OC` [Compound 43], for which, in assay [1], the inhibition at 10 µM was 33.3%. Further, the inhibition at 20 µM in assay [2] is 11.8%.

`COc1cc(-n2nnc3cnc(Nc4cccc(S(N)(=O)=O)c4)nc32)cc(OC)c1OC` [Compound 44, 3-[3-(3,4,5-Trimethoxy-phenyl)-3H-[1,2,3]triazolo[4,5-d]pyrimidin-5-ylamino]-benzene-sulfonamide]: the inhibition at 10 µM in assay [1] came to 24.7%. Moreover, the inhibition at 20 µM in assay [2] came out at 10.2%.

Regarding `NS(=O)(=O)c1ccccc1-n1nnc2cnc(Nc3ccc4[nH]ncc4c3)nc21` [Compound 45, 2-[5-(1H-Indazol-5-ylamino)-[1,2,3]triazolo[4,5-d]pyrimidin-3-yl]-benzene-sulfonamide], the inhibition at 10 µM in assay [1] was determined as 21.8%. Besides, the inhibition at 20 µM in assay [2] is 16.2%.

Take `NS(=O)(=O)c1ccccc1Nc1ncc2nnn(-c3ccccc3S(N)(=O)=O)c2n1` [Compound 46]: the inhibition at 10 µM in assay [1] is 29.2%. In addition, the inhibition at 20 µM in assay [2] came to 44.9%.

`NS(=O)(=O)c1cccc(Nc2ncc3nnn(-c4cccc(S(N)(=O)=O)c4)c3n2)c1` [Compound 47]: the inhibition at 10 µM in assay [1] came out at 63.6%. For the same molecule, the inhibition at 20 µM in assay [2] was determined as 51.3%.

As to `CCCCNS(=O)(=O)c1cccc(Nc2ncc3nnn(-c4cccc(S(=O)(=O)NCCCC)c4)c3n2)c1` [Compound 48], the inhibition at 10 µM in assay [1] is 7.44%. The inhibition at 20 µM in assay [2] is -37.4%.

In the case of `CCCCNS(=O)(=O)c1cccc(-n2nnc3cnc(Nc4ccc(C(=O)NCCN(CC)CC)cc4)nc32)c1` [Compound 49], in assay [1], the inhibition at 10 µM was 99.5%. For the same molecule, the inhibition at 20 µM in assay [2] stood at 44.6%.

As for `CCCCNS(=O)(=O)c1cccc(-n2nnc3cnc(Nc4ccc(N5CCN(Cc6ccccc6)CC5)cc4)nc32)c1` [Compound 50, 3-{5-[4-(4-Benzyl-piperazin-1-yl)-phenylamino]-[1,2,3]triazolo[4,5-d]pyrimidin-3-yl]-N-butyl-benzene-sulfonamide], the inhibition at 10 µM in assay [1] is 48.4%. For the same molecule, the inhibition at 20 µM in assay [2] worked out at 31.7%.

As for `CCN(CC)CCNC(=O)c1ccc(Nc2ncc3nnn(-c4ccc(C(=O)NCCN(CC)CC)cc4)c3n2)cc1` [Compound 52], the inhibition at 10 µM in assay [1] came to 47.9%. Also, the inhibition at 20 µM in assay [2] is -19.1%.
